Measured values as given in ChEMBL document CHEMBL5029175, “Discovery of MK-4688: an Efficient Inhibitor of the HDM2-p53 Protein-Protein Interaction” (J Med Chem, 2021).

Assays:
[1] = tested on: HCT-116; experiment: cells; conditions: Homo sapiens, HCT-116, 72 h
[2] = Clearance in rat plasma; type: ADME, cell-free
[3] = Selectivity index, ratio of IC50 for inhibition of HDM2/p53 interaction in human HCT-116 cells expressing p53/Bla to IC50 for inhibition of N-terminal thioredoxin-His6 tagged HDM2 (17 to 125 residues)/p53 protein-protein interaction (unknown origin); type: cell-based
[4] = Lipophilicity, logD of the compound at pH 7 by RP-HPLC analysis; type: physicochemical; conditions: buffer
[5] = Oral bioavailability in rat; type: ADME, organism-based; conditions: in vivo
[6] = target: Tumour suppressor p53/oncoprotein Mdm2 (Homo sapiens, UniProt Q00987); experiment: Inhibition of HDM2/p53 interaction in human HCT-116 cells expressing p53RE/Bla incubated for 16 hrs by beta-lactamase reporter gene assay; type: cell-based
[7] = Mean residence time in rat; type: ADME; conditions: in vivo
[8] = target: E3 ubiquitin-protein ligase Mdm2 (Homo sapiens, UniProt Q00987); experiment: Binding affinity to HDM2 (unknown origin)
[9] = Plasma protein binding in rat; type: ADME, cell-free; conditions: read-out: PPB (converted)
[10] = target: T1, Cytochrome P450 3A4 (Homo sapiens, UniProt P08684); experiment: Inhibition of CYP3A4 (unknown origin); type: ADME
[11] = Intrinsic clearance in dog hepatocytes; type: ADME, cell-based, Canis lupus familiaris, Hepatocyte; conditions: read-out: CLH
[12] = target: Cytochrome P450 2C9 (Homo sapiens, UniProt P11712); experiment: Inhibition of CYP2C9 (unknown origin); type: ADME
[13] = tested on: Mus musculus; experiment: In vivo activation of p53 pathway in human SJSA-1 cells xenografted in po dosed CD-1 nu/nu mouse assessed as induction of p21 mRNA expression measured after 6 hrs; type: functional, organism-based; conditions: dose 100.0 mg/kg
[14] = Plasma protein binding in dog; type: ADME, cell-free, Canis lupus familiaris; conditions: read-out: PPB (converted)
[15] = Volume of distribution in rhesus monkey at 0.5 mg/kg, iv; type: ADME, organism-based, Macaca mulatta; conditions: in vivo
[16] = Clearance in rat plasma at 1 mg/kg, po or 0.5 mg/kg, iv; type: ADME, organism-based
[17] = Clearance in dog plasma at 0.5 mg/kg, po or 0.25 mg/kg, iv; type: ADME, organism-based, Canis lupus familiaris
[18] = Bioavailability in dog; type: ADME, organism-based, Canis lupus familiaris; conditions: in vivo
[19] = Intrinsic clearance in human hepatocytes; type: ADME, cell-based, Hepatocyte; conditions: read-out: CLH
[20] = Clearance in rhesus monkey plasma at 0.5 mg/kg, iv; type: ADME, organism-based, Macaca mulatta
[21] = Plasma protein binding in human; type: ADME, cell-free; conditions: read-out: PPB (converted)
[22] = Unbound clearance in dog; type: ADME, Canis lupus familiaris; conditions: in vivo
[23] = target: Cytochrome P450 2D6 (Homo sapiens, UniProt P10635); experiment: Inhibition of CYP2D6 (unknown origin); type: ADME
[24] = Toxicity in CD-1 mouse xenografted with human SJSA-1 cells assessed as body weight loss at 50 to 100 mg/kg, po administered once daily for 7 consecutive days followed by 2 weeks off dosing schedule; type: organism-based; conditions: in vivo, 504 h, dose 50-100 mg/kg, time 3 weeks
[25] = target: T2, Cytochrome P450 2C8 (Homo sapiens, UniProt P10632); experiment: Inhibition of CYP2C8 (unknown origin); type: ADME
T2 sequence (P10632 whole entry): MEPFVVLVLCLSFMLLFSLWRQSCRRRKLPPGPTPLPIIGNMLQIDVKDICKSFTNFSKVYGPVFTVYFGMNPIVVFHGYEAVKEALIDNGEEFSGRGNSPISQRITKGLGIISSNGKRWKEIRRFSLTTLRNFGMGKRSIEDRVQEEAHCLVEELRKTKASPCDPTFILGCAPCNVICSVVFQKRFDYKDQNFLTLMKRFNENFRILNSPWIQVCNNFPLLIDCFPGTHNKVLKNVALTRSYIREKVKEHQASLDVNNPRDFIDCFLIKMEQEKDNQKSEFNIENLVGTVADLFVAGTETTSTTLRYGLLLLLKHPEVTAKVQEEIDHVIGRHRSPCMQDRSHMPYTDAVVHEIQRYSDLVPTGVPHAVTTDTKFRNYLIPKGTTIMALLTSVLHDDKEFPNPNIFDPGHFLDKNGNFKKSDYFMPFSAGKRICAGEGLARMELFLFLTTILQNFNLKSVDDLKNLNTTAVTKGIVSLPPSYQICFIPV

[26] = Intrinsic Clearance in rhesus monkey hepatocytes; type: ADME, cell-based, Macaca mulatta, Hepatocyte; conditions: read-out: CLH
[27] = Terminal half life in dog at 0.5 mg/kg, po or 0.25 mg/kg, iv; type: ADME, organism-based, Canis lupus familiaris; conditions: in vivo, read-out: beta t1/2 (converted)
[28] = Mean residence time in dog; type: ADME, Canis lupus familiaris; conditions: in vivo
[29] = tested on: SJSA-1; experiment: Antitumor activity against human SJSA-1 cells xenografted in po dosed CD-1 nu/nu mouse assessed as tumor growth inhibition administered once daily for 7 consecutive days followed by 2 weeks off dosing schedule; type: functional, organism-based; conditions: time 3.0 weeks
[30] = Bioavailability in dog at 0.5 mg/kg, po or 0.25 mg/kg, iv; type: ADME, organism-based, Canis lupus familiaris; conditions: in vivo
[31] = target: T1, Cytochrome P450 3A4; experiment: Activation of CYP3A4 (unknown origin); type: ADME
[32] = Bioavailability in rat; type: ADME, organism-based; conditions: in vivo
[33] = Volume of distribution in dog at 0.5 mg/kg, po or 0.25 mg/kg, iv; type: ADME, organism-based, Canis lupus familiaris; conditions: in vivo
[34] = Volume of distribution in rat at 1 mg/kg, po or 0.5 mg/kg, iv; type: ADME, organism-based; conditions: in vivo
[35] = target: Voltage-gated inwardly rectifying potassium channel KCNH2 (Homo sapiens, UniProt Q12809); experiment: Inhibition of human ERG
[36] = Plasma protein binding in rhesus monkey; type: ADME, cell-free, Macaca mulatta; conditions: read-out: PPB (converted)
[37] = Terminal half life in rat at 1 mg/kg, po or 0.5 mg/kg, iv; type: ADME, organism-based; conditions: in vivo, read-out: beta t1/2 (converted)
[38] = Terminal half life in rhesus monkey at 0.5 mg/kg, iv; type: ADME, organism-based, Macaca mulatta; conditions: in vivo, read-out: beta t1/2 (converted)
[39] = Unbound clearance in rat; type: ADME; conditions: in vivo
[40] = Bioavailability in rat at 1 mg/kg, po or 0.5 mg/kg, iv; type: ADME, organism-based; conditions: in vivo
[41] = Intrinsic clearance in rat hepatocytes; type: ADME, cell-based, Hepatocyte; conditions: read-out: CLH

T1 sequence (P08684 whole entry): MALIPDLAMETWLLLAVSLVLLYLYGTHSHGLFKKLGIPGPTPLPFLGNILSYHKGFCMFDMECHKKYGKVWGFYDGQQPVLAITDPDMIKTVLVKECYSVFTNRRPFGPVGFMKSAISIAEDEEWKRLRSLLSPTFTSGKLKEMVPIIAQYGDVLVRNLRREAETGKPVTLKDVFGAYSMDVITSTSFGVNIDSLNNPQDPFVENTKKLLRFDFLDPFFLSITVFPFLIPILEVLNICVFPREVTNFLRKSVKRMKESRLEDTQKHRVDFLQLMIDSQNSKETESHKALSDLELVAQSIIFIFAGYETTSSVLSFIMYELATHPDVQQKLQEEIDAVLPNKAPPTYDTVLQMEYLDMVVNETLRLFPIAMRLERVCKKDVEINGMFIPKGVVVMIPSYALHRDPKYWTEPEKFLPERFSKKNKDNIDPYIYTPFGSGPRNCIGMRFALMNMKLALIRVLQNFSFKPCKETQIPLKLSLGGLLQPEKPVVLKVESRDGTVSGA
E3 ubiquitin-protein ligase Mdm2, sequence (Q00987 whole entry): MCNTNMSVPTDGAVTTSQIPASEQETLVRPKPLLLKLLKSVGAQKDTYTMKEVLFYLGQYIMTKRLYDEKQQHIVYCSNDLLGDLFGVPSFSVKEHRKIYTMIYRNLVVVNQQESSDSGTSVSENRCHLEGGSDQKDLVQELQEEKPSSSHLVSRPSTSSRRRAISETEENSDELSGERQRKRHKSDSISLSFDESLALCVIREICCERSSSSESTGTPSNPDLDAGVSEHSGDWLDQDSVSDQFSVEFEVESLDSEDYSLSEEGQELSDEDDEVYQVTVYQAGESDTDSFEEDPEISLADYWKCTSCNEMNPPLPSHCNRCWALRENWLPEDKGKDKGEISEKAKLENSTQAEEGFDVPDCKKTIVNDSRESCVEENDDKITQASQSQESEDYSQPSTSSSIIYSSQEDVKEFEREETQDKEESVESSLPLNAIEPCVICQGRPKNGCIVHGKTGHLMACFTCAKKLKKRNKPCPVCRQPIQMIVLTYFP
Tumour suppressor p53/oncoprotein Mdm2, sequence (P04637 whole entry): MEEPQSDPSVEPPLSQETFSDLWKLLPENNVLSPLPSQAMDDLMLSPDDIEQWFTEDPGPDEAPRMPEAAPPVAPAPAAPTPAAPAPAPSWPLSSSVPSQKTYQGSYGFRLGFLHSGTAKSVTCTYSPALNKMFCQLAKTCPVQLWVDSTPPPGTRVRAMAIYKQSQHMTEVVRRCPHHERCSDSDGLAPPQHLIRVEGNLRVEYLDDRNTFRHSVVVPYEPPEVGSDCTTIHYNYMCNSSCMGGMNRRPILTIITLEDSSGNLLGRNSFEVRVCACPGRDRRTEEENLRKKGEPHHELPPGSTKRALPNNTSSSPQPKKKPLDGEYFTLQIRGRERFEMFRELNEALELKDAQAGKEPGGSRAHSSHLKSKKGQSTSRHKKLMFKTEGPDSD
Tumour suppressor p53/oncoprotein Mdm2, sequence (Q00987 whole entry): as the sequence (Q00987 whole entry) above
Cytochrome P450 2D6, sequence (P10635 whole entry): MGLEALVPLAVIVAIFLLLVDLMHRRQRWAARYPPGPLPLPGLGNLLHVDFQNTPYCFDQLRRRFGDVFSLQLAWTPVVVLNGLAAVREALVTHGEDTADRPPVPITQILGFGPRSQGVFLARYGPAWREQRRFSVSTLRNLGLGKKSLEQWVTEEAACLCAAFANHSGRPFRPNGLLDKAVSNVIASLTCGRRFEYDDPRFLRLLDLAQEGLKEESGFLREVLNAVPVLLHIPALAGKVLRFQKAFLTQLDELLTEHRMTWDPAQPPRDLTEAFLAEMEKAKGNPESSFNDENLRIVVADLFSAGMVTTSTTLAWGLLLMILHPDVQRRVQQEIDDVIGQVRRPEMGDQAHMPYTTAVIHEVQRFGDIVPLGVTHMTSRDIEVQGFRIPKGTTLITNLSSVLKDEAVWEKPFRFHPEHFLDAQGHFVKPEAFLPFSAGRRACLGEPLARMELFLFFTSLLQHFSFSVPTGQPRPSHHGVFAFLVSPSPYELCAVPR
Cytochrome P450 2C9, sequence (P11712 whole entry): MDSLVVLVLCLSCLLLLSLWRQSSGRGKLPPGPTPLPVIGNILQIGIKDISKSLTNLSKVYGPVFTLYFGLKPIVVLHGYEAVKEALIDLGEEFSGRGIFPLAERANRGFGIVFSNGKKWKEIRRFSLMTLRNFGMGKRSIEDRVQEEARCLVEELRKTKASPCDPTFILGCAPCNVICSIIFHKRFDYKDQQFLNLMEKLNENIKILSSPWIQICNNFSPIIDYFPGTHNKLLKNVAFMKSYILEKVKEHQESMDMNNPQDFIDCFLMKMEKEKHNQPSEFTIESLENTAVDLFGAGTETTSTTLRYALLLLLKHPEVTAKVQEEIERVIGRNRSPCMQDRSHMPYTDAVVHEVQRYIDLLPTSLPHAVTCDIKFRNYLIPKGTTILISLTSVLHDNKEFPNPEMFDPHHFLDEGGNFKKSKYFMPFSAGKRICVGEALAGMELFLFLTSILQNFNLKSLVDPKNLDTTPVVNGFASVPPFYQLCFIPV
Voltage-gated inwardly rectifying potassium channel KCNH2, sequence (Q12809 whole entry): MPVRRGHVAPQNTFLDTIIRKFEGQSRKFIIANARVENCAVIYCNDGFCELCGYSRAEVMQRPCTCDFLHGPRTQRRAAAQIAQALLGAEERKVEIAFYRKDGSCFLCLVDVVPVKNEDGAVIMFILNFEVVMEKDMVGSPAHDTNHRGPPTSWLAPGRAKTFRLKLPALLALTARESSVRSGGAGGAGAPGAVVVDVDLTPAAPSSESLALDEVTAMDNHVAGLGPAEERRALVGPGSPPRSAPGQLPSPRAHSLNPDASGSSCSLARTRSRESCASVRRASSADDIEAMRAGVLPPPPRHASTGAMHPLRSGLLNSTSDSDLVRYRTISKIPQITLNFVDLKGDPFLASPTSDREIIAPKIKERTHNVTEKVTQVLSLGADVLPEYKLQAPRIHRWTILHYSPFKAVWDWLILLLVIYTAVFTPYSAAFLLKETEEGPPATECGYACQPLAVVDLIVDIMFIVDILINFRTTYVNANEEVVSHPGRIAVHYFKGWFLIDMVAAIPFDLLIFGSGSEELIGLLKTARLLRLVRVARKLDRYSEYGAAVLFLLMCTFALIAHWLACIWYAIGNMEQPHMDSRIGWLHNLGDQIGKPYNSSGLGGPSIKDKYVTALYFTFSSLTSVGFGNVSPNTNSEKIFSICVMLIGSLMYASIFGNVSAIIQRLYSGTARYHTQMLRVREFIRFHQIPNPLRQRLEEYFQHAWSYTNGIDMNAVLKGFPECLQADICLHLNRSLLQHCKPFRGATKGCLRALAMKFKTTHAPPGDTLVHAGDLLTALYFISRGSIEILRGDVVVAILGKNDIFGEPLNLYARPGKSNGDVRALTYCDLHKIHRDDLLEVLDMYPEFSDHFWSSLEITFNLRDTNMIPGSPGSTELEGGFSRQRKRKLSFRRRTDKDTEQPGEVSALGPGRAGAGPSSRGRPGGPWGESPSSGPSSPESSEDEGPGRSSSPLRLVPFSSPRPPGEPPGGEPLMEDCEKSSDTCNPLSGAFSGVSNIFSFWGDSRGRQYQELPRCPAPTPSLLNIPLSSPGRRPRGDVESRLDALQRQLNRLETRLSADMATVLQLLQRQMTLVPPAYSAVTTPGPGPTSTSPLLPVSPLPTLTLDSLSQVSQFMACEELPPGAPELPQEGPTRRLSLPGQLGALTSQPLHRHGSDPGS

C[C@@H](Nc1nc(-c2noc(=O)[nH]2)nc2nc(N3CCOC[C@H]3c3ccccc3)n(C[C@H]3CC[C@H](C)CC3)c12)C1CCC1
IC50 [1]: 0.446 µM
clearance [2]: 73 mL/min/kg
Ratio IC50 [3]: 100
logD [4]: 3.27
bioavailability [5]: 2%
IC50 [6]: 0.064 µM
MRT [7]: 0.73 h

CCC[C@H]1N(C(=O)c2ncccc2C(F)(F)F)CCC[C@@]1(Oc1csc(C(F)(F)F)c1)C(=O)N1CCC(O)(c2ccccc2O[C@H](C)CCC2(C(=O)O)CCC2)CC1
Kd [8]: 0.0038 µM

C[C@H]1CC[C@H](Cn2c(N3CCO[C@@H]4CCC[C@H]43)nc3cc(-c4noc(=O)[nH]4)nc(-c4cncc(Cl)c4)c32)CC1
fraction unbound [9]: 0.007
IC50 [10]: > 50 µM
CLint scaled [11]: 78 mL/min/kg
IC50 [12]: 31 µM
Activity [13]: Dose-Dependent Effect
fraction unbound [14]: 0.009
Vd [15]: 0.91 L/kg
clearance [16]: 36 mL/min/kg
clearance [17]: 1.4 mL/min/kg
IC50 [1]: 0.122 µM
bioavailability [18]: 86%
CLint scaled [19]: 58 mL/min/kg
clearance [20]: 12.4 mL/min/kg
fraction unbound [21]: 0.008
CL free [22]: 122 mL/min/kg
IC50 [23]: > 50 µM
Activity [24]: Non-Toxic
IC50 [25]: 0.8 µM
CLint scaled [26]: 70 mL/min/kg
logD [4]: 2.46
half-life [27]: 4.2 h
MRT [28]: 5.9 h
Activity [29]: Dose-Dependent Effect
bioavailability [30]: 86%
EC50 [31]: > 30 µM
bioavailability [32]: 24%
Vd [33]: 0.39 L/kg
Vd [34]: 1.3 L/kg
IC50 [35]: 12 µM
fraction unbound [36]: 0.006
half-life [37]: 3 h
half-life [38]: 1.6 h
CL free [39]: 5214 mL/min/kg
bioavailability [40]: 24%
MRT [7]: 0.6 h
CLint scaled [41]: 251 mL/min/kg
